# Patent US20240182941A1, “XYLOSYLATED STEVIOL GLYCOSIDES AND ENZYMATIC METHODS FOR PRODUCTION” (CARGILL, INCORPORATED, priority 2021, published 2024)
# Several values for one entry are separate records, joined by “and”; a condition that tells them apart may be missing. Equal entries are not always repeated.
# Columns and labels:
# [1] = system: purified protein of SEQ ID NO:1; test: Time course of glycosylation of Reb A using SEQ ID NO:1 and activated sugars; format: biochemical, Oryza sativa Japonica Group
# Method: (§1) Bioconversion reaction was carried out in a total of 100 uL sealed vials containing the Tris buffer, 0.1 μmoles of SG acceptor, 0.2 μmoles of activated sugar donor, 1 μmoles of sucrose and 2 ug protein of the enzymes. To each vial, buffer, sucrose, UDP-sugar donor, and SG acceptor were added in that order before finally the enzymes were added. For each SG donor, a control was included to contain the same amounts of sucrose and enzymes without UDP-sugar donors. After hand mixing, the vials were placed in a temperature-controlled shaker set at 30C and 100 rpm in rotating motion for 96 hours (4 days).
# (§2) After 4 days of reaction, 0.9 mL of 80% acetonitrile was added to each vial and the resulting samples were analyzed in LC/MS. Xylose modification of the -19C(O)-β-Glc residue was confirmed.
# The ability of SEQ ID NO:1 to glycosylate Reb A with different activated sugars used at different concentrations was examined, with the reaction products formed being measured over the course of the reaction.
# Purified protein of SEQ ID NO:1 was used with UDP-glucose, UDP-xylose, and UDP-rhamnose di-sodium salts, and the reagents and reaction conditions were as described in Example 1.
# [2] = cited from earlier work
# [3] = system: glycosyltransferase polypeptide of SEQ ID NO:1; test: SG bioconversion with UDP-xylose using enzyme of SEQ ID NO:1; format: biochemical, Oryza sativa Japonica Group; conditions: enzyme SEQ ID NO:1, 2 ug protein, 96 hours, 30C, runs 1 and 2
# Method: (§3) Six steviolglycoside (SG) ‘acceptors’ Reb A, B, C, D, M and stevioside were tested using 2 glucosyltransferase enzymes (SEQ ID NO:1 and UGT76G1) known to play key roles in SG biosynthesis in stevia leaves and activated xylose (UDP-xylose).
# (§4) UDP-xylose (98.9% purity) and UDP-rhamnose di-sodium salt (95% purity) were purchased from BOC Sciences. The activated sugar donors were prepared to 10 mM concentration with 0.05 M tris buffer and stored according to manufacturers' recommendations before use.
# (§5) Enzyme of SEQ ID NO:1 and UGT76G1 enzyme were prepared in E. coli host cells as tagged proteins with expression induced by a chemical inducer. Following induction, the cells were incubated overnight and harvested. The cells were then lysed (either through sonication, mechanical disruption or chemical lysis) and the proteins purified through chromatography and stored frozen at −20C till use. Enzyme activities were confirmed using UDP-glucose in a preliminary test. Frozen enzyme solution was thawed right before use and returned to frozen storage after use.
# (§6) SG materials were obtained from various sources with 90%+ purities. All SG materials were prepared at 20 mM with 90% DMSO and stored at ambient temperature. Final DMSO concentration in the reaction mixture was 4.5%.
# (§7) Sucrose, previously shown to have a stabilizing effect on the bioconversion reaction, was prepared at 0.1 M with 0.05 M tris buffer.
# (§8) Tris (tris(hydroxymethyl)aminomethane) buffer was prepared at 0.05 M, pH 7.3 and contained 3 mM each of MgCl2 and MnCl2 as co-factors.
# as §1, §2
# [4] = target: T1, UGT76G1 (Stevia rebaudiana, UniProt Q6VAB4); test: SG bioconversion with UDP-xylose using UGT76G1; format: biochemical; conditions: enzyme UGT76G1, 2 ug protein, 96 hours, 30C, runs 1 and 2
# T1 construct: unspecified tag; made in house; host or cells: E. coli
# T1 sequence (Q6VAB4 1-458): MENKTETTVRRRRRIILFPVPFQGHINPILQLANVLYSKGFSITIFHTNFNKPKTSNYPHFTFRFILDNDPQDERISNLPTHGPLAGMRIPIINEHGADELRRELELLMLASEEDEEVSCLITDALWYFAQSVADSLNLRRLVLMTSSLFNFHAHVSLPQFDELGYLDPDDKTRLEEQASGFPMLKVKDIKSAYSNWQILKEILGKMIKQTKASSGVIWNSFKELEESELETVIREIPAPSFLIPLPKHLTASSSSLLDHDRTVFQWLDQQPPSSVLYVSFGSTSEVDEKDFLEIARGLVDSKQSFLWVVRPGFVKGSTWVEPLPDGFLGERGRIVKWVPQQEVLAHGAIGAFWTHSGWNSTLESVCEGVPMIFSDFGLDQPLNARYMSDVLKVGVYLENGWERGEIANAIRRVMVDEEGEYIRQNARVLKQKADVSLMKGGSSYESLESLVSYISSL
# Method: as §3, §4, §5, §6, §7, §8, §1, §2
molecule,measurement,setting,value
"C=C1C[C@@]23CC[C@H]4[C@@](C)(CCC[C@@]4(C)C(=O)O[C@@H]4O[C@H](CO)[C@@H](O)[C@H](O)[C@H]4O)[C@@H]2CC[C@]1(O[C@@H]1O[C@H](CO)[C@@H](O)[C@H](O[C@@H]2O[C@H](CO)[C@@H](O)[C@H](O)[C@H]2O)[C@H]1O[C@@H]1O[C@H](CO)[C@@H](O)[C@H](O)[C@H]1O)C3 [Reb A, rebaudioside A]",glucosylation and xylosylation plateaued after,[1]; 1 mM activated sugars,20 min
same,Rhamnosylation using UDP-rhamnose compared with glucosylation and xylosylation,[1]; 2 mM activated sugars,significantly lower
same,glucosylation and xylosylation plateaued after,[1]; 2 mM activated sugars,20 min
same,% Reb A bioconversion,"[1]; UDP-Glucose (1 mM), 0 hours",0%
same,% Reb A bioconversion,"[1]; UDP-Glucose (1 mM), 18 hours",68.47%
same,% Reb A bioconversion,"[1]; UDP-Glucose (1 mM), 48 hours",68.6%
same,% Reb A bioconversion,"[1]; UDP-Glucose (1 mM), 96 hours",68.1%
same,% Reb A bioconversion,"[1]; UDP-Glucose (2 mM), 0 hours",0%
same,% Reb A bioconversion,"[1]; UDP-Glucose (2 mM), 18 hours",84.93%
same,% Reb A bioconversion,"[1]; UDP-Glucose (2 mM), 48 hours",83.9%
same,% Reb A bioconversion,"[1]; UDP-Glucose (2 mM), 96 hours",82.1%
same,% Reb A bioconversion,"[1]; UDP-Rhamnose (2 mM), 0 hours",0%
same,% Reb A bioconversion,"[1]; UDP-Rhamnose (2 mM), 18 hours",14.7%
same,% Reb A bioconversion,"[1]; UDP-Rhamnose (2 mM), 48 hours",25%
same,% Reb A bioconversion,"[1]; UDP-Rhamnose (2 mM), 96 hours",30%
same,% Reb A bioconversion,"[1]; UDP-Xylose (1 mM), 0 hours",0%
same,% Reb A bioconversion,"[1]; UDP-Xylose (1 mM), 18 hours",60.09%
same,% Reb A bioconversion,"[1]; UDP-Xylose (1 mM), 48 hours",60.39%
same,% Reb A bioconversion,"[1]; UDP-Xylose (1 mM), 96 hours",60.66%
same,% Reb A bioconversion,"[1]; UDP-Xylose (2 mM), 0 hours",0%
same,% Reb A bioconversion,"[1]; UDP-Xylose (2 mM), 18 hours",83.26%
same,% Reb A bioconversion,"[1]; UDP-Xylose (2 mM), 48 hours",83.5%
same,% Reb A bioconversion,"[1]; UDP-Xylose (2 mM), 96 hours",82.33%
same,sweetness relative to sucrose,[2]; times sweeter than sucrose,250-300 times
C=C1C[C@@]23CC[C@H]4[C@@](C)(CCC[C@@]4(C)C(=O)O)[C@@H]2CC[C@]1(O[C@@H]1O[C@H](CO)[C@@H](O)[C@H](O[C@@H]2O[C@H](CO)[C@@H](O)[C@H](O)[C@H]2O)[C@H]1O[C@@H]1O[C@H](CO)[C@@H](O)[C@H](O)[C@H]1O)C3 [Reb B],% SG bioconversion with UDP-xylose,[3],0%
same,% SG bioconversion with UDP-xylose,[4],0%
"C=C1C[C@@]23CC[C@H]4[C@@](C)(CCC[C@@]4(C)C(=O)O[C@@H]4O[C@H](CO)[C@@H](O)[C@H](O)[C@H]4O[C@@H]4O[C@H](CO)[C@@H](O)[C@H](O)[C@H]4O)[C@@H]2CC[C@]1(O[C@@H]1O[C@H](CO)[C@@H](O)[C@H](O[C@@H]2O[C@H](CO)[C@@H](O)[C@H](O)[C@H]2O)[C@H]1O[C@@H]1O[C@H](CO)[C@@H](O)[C@H](O)[C@H]1O)C3 [Reb D, Rebaudioside D]",% SG bioconversion with UDP-xylose,[3],~10%
same,% SG bioconversion with UDP-xylose,[4],0%
"C=C1C[C@@]23CC[C@H]4[C@@](C)(CCC[C@@]4(C)C(=O)O[C@@H]4O[C@H](CO)[C@@H](O)[C@H](O[C@@H]5O[C@H](CO)[C@@H](O)[C@H](O)[C@H]5O)[C@H]4O[C@@H]4O[C@H](CO)[C@@H](O)[C@H](O)[C@H]4O)[C@@H]2CC[C@]1(O[C@@H]1O[C@H](CO)[C@@H](O)[C@H](O[C@@H]2O[C@H](CO)[C@@H](O)[C@H](O)[C@H]2O)[C@H]1O[C@@H]1O[C@H](CO)[C@@H](O)[C@H](O)[C@H]1O)C3 [Reb M, Rebaudioside M]",% SG bioconversion with UDP-xylose,[3],0%
same,% SG bioconversion with UDP-xylose,[4],0%
"C=C1C[C@@]23CC[C@H]4[C@@](C)(CCC[C@@]4(C)C(=O)O[C@@H]4O[C@H](CO)[C@@H](O)[C@H](O)[C@H]4O)[C@@H]2CC[C@]1(O[C@@H]1O[C@H](CO)[C@@H](O)[C@H](O)[C@H]1O[C@@H]1O[C@H](CO)[C@@H](O)[C@H](O)[C@H]1O)C3 [Stevioside, stevioside]",% SG bioconversion with UDP-xylose,[3],85.9% and 90.2%
same,% SG bioconversion with UDP-xylose,[3]; listed as stevioside,very high conversion
same,% SG bioconversion with UDP-xylose,[4],40.5% and 39.0%
rebaudioside C [Reb C],% SG bioconversion with UDP-xylose,[4],11.0% and 10.1%
same,sweetness relative to glucose,[2]; times sweeter than glucose,30 times
